Experiment: Oral bioavailability studies in dogs
Assay type: in vivo, beagle dogs
Conditions: dog, administered as an unformulated solid in a capsule dosage form, 5 mg/kg oral dose in dogs
Experimental: Dogs (beagle dogs, mixed sexes, weighing 7-14 kg) were fasted overnight prior to dosing, but were permitted water ad libitum. Each dog received a 100 µg/kg subcutaneous dose of histamine approximately 30 minutes prior to dosing. Each dog received a single solid dosage form corresponding to a 5 mg/kg dose of the drug. The dose was followed by approximately 10 milliliters of water. Blood samples were obtained from each animal prior to dosing and 0.25, 0.5, 1.0,1.5, 2, 3, 4, 6, 8, 10 and 12 hours after drug administration. The plasma was separated from the red cells by centrifugation and frozen (-30°C) until analysis. Concentrations of parent drug were determined by reverse phase HPLC with low wavelength UV detection following liquid-liquid extraction of the plasma samples. The parent drug area under the curve was calculated by the trapezoidal method over the time course of the study. The absolute bioavailability of each test composition was calculated by comparing the area under the curve after oral dosing to that obtained from a single intravenous dose. Each capsule or capsule composition was evaluated in a group containing at least six dogs; the values reported are averages for each group of dogs.

bioavailability at 12 h (in vivo)	bioavailability (both sexes, beagle, plasma)	SMILES
< 2%		CC(C)c1nc(CN(C)C(=O)N[C@H](C(=O)N[C@@H](Cc2ccccc2)C[C@H](O)[C@H](Cc2ccccc2)NC(=O)OCc2cncs2)C(C)C)cs1 [bis-tosylate of compound III]
	< 2%	CC(C)c1nc(CN(C)C(=O)N[C@H](C(=O)N[C@@H](Cc2ccccc2)C[C@H](O)[C@H](Cc2ccccc2)NC(=O)OCc2cncs2)C(C)C)cs1 [compound III, (2S,3S,5S)-5-(N-(N-((N-Methyl-N-((2-isopropyl-4-thiazolyl)methyl)-amino)carbonyl)valinyl)amino)-2-(N-((5-thiazolyl)methoxycarbonyl)amino)-1,6-diphenyl-3-hydroxyhexane]
